Like-named read-outs stand apart in the source and are kept apart here.
Legend:
Hepatitis B virus = assay: Inhibition of HBV replication in transfected HepG-2 (2.2.15) cells (HBV virion DNA and replicative intermediates, blot hybridization); format: cell-based; details: for Selectivity Index IC50/EC50 RI: cytotoxicity IC50 / RI EC50; for Selectivity Index IC50/EC50 Virion: cytotoxicity IC50 / virion EC50; for Selectivity Index IC50/EC90 RI: cytotoxicity IC50 / RI EC90; for Selectivity Index IC50/EC90 Virion: cytotoxicity IC50 / virion EC90; for Inhibition of HBV replication (depression of HBV virion DNA and HBV RI), in words: 2.2.15 cells
Experimental: The assay used herein to evaluate the ability of the disclosed compounds to inhibit the replication of HBV is described in detail in Korba and Gerin, Antiviral Res. 19: 55-70 (1992). […] The toxicity and anti-HBV activity of (−)-β-L-2-hydroxymethyl-5-(5-fluorocytosin-1-yl)-1,3-oxathiolane ((−)-β-L-FTC) and β-D-2′,3′-dideoxycytidine (β-D-ddC) are included as controls. The other compounds disclosed herein can be evaluated similarly.
The antiviral evaluations were performed on two separate passages of cells, two cultures per passage (4 cultures total). All wells, in all plates, were seeded at the same density and at the same time.
(Korba and Gerin, Antiviral Res. 19: 55-70, 1992). The levels of integrated HBV DNA in each cellular DNA preparation (which remain constant on a per cell basis in these experiments) were used to calculate the levels of intracellular HBV DNA forms, thereby eliminating technical variations inherent in the blot hybridization assays.
(§1) Toxicity analyses were performed in order to assess whether any observed antiviral effects were due to a general effect on cell viability. The method used was based on the uptake of neutral red dye, a standard and widely used assay for cell viability in a variety of virus-host systems, including HSV (herpes simplex virus) and HIV. The test compounds were used in the form of 40 mM stock solutions in DMSO (frozen on dry ice). Daily aliquots of the test samples were made and frozen at −20° C. so that each individual aliquot would be subjected to a single freeze-thaw cycle. The daily test aliquots were thawed, suspended into culture medium at room temperature and immediately added to the cell cultures. The compounds were tested at 0.01 to 10 μM for antiviral activity. The compounds were tested for toxicity at concentrations from 1 to 300 μM.

[1] = Toxicity analysis by uptake of neutral red dye in 2.2.15 cell cultures; details: human
Experimental: as §1
(§2) Toxicity analyses were performed in 96-well flat bottomed tissue culture plates. Cells for the toxicity analyses were cultured and treated with test compounds with the same schedule as used for the antiviral evaluations. Each compound was tested at 4 concentrations, each in triplicate cultures. Uptake of neutral red dye was used to determine the relative level of toxicity. The absorbance of internalized dye at […] (A510) was used for the quantitative analysis. Values are presented as a percentage of the average A510 values (± standard deviations) in 9 separate cultures of untreated cells maintained on the same 96-well plate as the test compounds.

[2] = tested on: 2.2.15 cells (HepG2 cells transformed with hepatitis virion); assay: as above
Experimental: as §1, §2

[3] = molecular target: woodchuck hepatitis virus DNA polymerase (Woodchuck hepatitis B virus, UniProt P03160); assay: Inhibition of woodchuck hepatitis virus DNA polymerase by triphosphates; format: biochemical; details: read-out: WHB DNA Pol IC50
Sequence of woodchuck hepatitis virus DNA polymerase (P03160 whole entry): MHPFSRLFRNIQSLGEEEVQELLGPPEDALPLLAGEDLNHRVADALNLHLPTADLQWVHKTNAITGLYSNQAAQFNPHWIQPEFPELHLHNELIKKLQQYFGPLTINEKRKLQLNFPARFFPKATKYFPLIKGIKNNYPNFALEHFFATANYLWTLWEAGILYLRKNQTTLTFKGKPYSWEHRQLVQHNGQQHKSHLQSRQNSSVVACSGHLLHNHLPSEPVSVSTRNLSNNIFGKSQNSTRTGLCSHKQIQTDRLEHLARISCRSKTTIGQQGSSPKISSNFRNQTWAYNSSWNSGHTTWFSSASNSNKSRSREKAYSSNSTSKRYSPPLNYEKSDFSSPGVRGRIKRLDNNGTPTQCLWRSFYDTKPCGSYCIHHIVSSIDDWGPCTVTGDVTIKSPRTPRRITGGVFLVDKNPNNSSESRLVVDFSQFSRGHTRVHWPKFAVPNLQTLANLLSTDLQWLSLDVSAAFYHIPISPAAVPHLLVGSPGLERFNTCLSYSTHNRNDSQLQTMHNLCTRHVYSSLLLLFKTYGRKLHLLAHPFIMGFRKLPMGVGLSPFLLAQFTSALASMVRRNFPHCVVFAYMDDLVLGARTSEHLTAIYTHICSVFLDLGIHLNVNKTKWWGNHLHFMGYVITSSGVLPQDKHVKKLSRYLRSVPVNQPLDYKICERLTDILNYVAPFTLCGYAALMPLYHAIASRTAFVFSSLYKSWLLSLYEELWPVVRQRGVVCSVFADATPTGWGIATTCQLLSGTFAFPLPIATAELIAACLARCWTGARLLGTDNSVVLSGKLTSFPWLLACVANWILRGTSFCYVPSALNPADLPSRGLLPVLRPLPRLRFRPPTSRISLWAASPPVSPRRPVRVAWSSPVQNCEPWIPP

human DNA polymerase α = molecular target: T1, human DNA polymerase α (Homo sapiens, UniProt P09884); assay: Inhibition of human DNA polymerase α by triphosphates; format: biochemical; details: read-out: DNA Pol α Ki
T1 sequence (P09884 1-1462): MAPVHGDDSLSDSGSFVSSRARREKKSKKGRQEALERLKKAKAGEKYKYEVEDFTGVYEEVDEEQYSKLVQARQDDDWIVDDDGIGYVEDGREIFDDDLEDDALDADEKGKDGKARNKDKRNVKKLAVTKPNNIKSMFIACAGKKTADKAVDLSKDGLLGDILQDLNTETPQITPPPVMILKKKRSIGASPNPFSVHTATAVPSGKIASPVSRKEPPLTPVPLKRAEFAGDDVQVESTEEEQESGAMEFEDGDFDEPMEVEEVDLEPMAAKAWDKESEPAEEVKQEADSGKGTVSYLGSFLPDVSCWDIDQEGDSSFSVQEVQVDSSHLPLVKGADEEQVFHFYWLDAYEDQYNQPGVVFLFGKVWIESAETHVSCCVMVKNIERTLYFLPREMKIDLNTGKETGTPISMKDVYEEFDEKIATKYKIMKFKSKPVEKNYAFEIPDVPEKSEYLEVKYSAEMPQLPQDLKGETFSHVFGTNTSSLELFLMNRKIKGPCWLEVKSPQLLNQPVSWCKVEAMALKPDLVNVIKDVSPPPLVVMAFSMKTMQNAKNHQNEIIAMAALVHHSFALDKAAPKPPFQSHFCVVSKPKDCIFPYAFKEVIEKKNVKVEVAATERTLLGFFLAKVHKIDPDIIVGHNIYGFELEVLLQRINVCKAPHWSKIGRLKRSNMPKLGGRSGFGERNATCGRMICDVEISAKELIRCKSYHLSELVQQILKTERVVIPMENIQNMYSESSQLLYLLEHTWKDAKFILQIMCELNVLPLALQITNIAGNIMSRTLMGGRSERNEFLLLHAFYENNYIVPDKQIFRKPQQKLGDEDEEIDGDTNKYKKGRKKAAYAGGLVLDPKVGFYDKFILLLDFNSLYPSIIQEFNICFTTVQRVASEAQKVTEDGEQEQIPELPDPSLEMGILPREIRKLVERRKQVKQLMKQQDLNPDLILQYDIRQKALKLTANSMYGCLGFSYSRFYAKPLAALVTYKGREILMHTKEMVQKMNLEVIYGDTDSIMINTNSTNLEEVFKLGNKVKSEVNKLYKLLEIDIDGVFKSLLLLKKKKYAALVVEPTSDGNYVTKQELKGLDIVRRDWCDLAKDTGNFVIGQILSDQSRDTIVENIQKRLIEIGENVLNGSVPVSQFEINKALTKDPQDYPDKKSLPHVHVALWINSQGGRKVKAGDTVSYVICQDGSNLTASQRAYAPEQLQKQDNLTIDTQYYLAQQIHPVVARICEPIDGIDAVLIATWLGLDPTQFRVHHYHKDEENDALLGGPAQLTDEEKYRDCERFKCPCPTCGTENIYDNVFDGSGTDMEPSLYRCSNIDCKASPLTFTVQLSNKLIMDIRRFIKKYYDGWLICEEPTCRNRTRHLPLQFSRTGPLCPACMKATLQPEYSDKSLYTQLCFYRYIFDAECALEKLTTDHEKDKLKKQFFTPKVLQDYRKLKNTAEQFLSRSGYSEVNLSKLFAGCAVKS

human DNA polymerase β = human DNA polymerase β (Homo sapiens, UniProt P06746); assay: Inhibition of human DNA polymerase β by triphosphates; format: biochemical; details: read-out: DNA Pol β Ki
[4] = Table 1, extracellular DNA, transfected HEPG-2 (2.2.15) cells, read-out: HBV viron EC50 ± SD
[5] = Table 1, extracellular DNA, transfected HEPG-2 (2.2.15) cells, read-out: HBV viron EC90 ± SD
[6] = Table 1, replicative intermediates (intracellular DNA), transfected HEPG-2 (2.2.15) cells, read-out: HBV RI EC50 ± SD
[7] = Table 1, replicative intermediates (intracellular DNA), transfected HEPG-2 (2.2.15) cells, read-out: HBV RI EC90 ± SD
[8] = read-out: Cytotoxity IC50 ± SD, Table 1, neutral red dye uptake, 2.2.15 cells
[9] = Table 2, extracellular DNA, transfected Hep G-2 (2.2.15) cells, read-out: HBV Virion EC50
[10] = Table 2, replicative intermediates (intracellular DNA), transfected Hep G-2 (2.2.15) cells, read-out: HBV RI EC50
[11] = read-out: Cytotoxicity IC50, Table 2, Hep G-2 (2.2.15) cells

## Nc1nc(=O)n([C@H]2O[C@@H](CO)C[C@H]2F)cc1F [2′-F-β-L-5FDDC, 1-(2-Fluoro-2,3-dideoxy-β-L-threo-pentofuranosyl)-5-fluorocytosine]
Hepatitis B virus; Hepatitis B virus, HepG2 2.2.15, read-out: HBV RI EC50
  EC50: 5 µM
Hepatitis B virus; Hepatitis B virus, HepG2 2.2.15, read-out: HBV Virion EC50
  EC50: 1.7 µM
Hepatitis B virus; Table 2
  Selectivity Index IC50/EC50 RI: 42
  Selectivity Index IC50/EC50 Virion: 124
[1]
  IC50: 210 µM

## Nc1nc(=O)n(C2CSC(CO)O2)cc1F [(−)-β-L-FTC, (−)-β-L-2-hydroxymethyl-5-(5-fluorocytosin-1-yl)-1,3-oxathiolane, reference compound]
Hepatitis B virus; Table 1
  Selectivity Index IC50/EC90 RI: 1,622
  Selectivity Index IC50/EC90 Virion: 1,947
Hepatitis B virus; [4]
  EC50: 0.017 ± 0.005 µM
Hepatitis B virus; [5]
  EC90: 0.15 ± 0.02 µM
Hepatitis B virus; [6]
  EC50: 0.049 ± 0.008 µM
Hepatitis B virus; [7]
  EC90: 0.18 ± 0.03 µM
[2]; [8]
  IC50: 292 ± 13 µM

## CC(=O)SCCOP(=O)(OCCSC(C)=O)OC[C@@H]1O[C@H](n2cc(C)c(=O)[nH]c2=O)C[C@H]1N=[N+]=[N-] [Bis (Sate) β-L-AZTMP]
Hepatitis B virus; Table 2
  Selectivity Index IC50/EC50 RI: 25
  Selectivity Index IC50/EC50 Virion: 27
Hepatitis B virus; [9]
  EC50: 7.5 µM
Hepatitis B virus; [10]
  EC50: 8 µM
[2]; [11]
  IC50: 200 µM

## CC(C)(C)C(=O)SCCOP(=O)(OCCSC(=O)C(C)(C)C)OCC1CCC(n2cnc3c(N)ncnc32)O1 [Bis (Sate) β-L-ddAMP, β-L-2′,3′-Dideoxyadenosin-5′-yl bis (2-pivaloylthioethyl) phosphate]
Hepatitis B virus; Table 2
  Selectivity Index IC50/EC50 RI: 571
  Selectivity Index IC50/EC50 Virion: 445
Hepatitis B virus; [9]
  EC50: 0.45 µM
Hepatitis B virus; [10]
  EC50: 0.35 µM
[2]; [11]
  IC50: 200 µM

## Nc1ccn([C@@H]2CS[C@H](COP(=O)(O)OP(=O)(O)OP(=O)(O)O)O2)c(=O)n1 [Compound 3-TC-TP, reference compound]
[3]
  IC50: 1 µM
Human DNA polymerase α
  Ki: > 100 µM
Human DNA polymerase β
  Ki: > 100 µM

## Nc1nc(=O)n([C@@H]2CC[C@H](COP(=O)(O)OP(=O)(O)OP(=O)(O)O)O2)cc1F [β-L-5FDDCTP]
[3]
  IC50: 2 µM
Human DNA polymerase α
  Ki: > 100 µM
Human DNA polymerase β
  Ki: > 100 µM

## Cc1cn([C@@H]2CC(N=[N+]=[N-])[C@H](CO)O2)c(=O)[nH]c1=O (stereo partly drawn) [β-L-AZT, 1-(3-Azido-2-3-dideoxy-β-L-erythro-pentofuranosyl) thymine]
Hepatitis B virus; Hepatitis B virus, HepG2 2.2.15, read-out: HBV RI EC50, Table 2, replicative intermediates (intracellular DNA), transfected Hep G-2 (2.2.15) cells
  EC50: > 10 µM
Hepatitis B virus; Hepatitis B virus, HepG2 2.2.15, read-out: HBV Virion EC50, Table 2, extracellular DNA, transfected Hep G-2 (2.2.15) cells
  EC50: > 10 µM
[1]; Cytotoxicity IC50, Table 2, Hep G-2 (2.2.15) cells
  IC50: 1000 µM

## Cc1cn([C@@H]2C[C@@H](N=[N+]=[N-])[C@H](COP(=O)(O)OP(=O)(O)OP(=O)(O)O)O2)c(=O)[nH]c1=O [β-L-AZTPP]
[3]
  IC50: 0.2 µM
Human DNA polymerase α
  Ki: > 100 µM
Human DNA polymerase β
  Ki: > 100 µM

## Nc1ccn([C@@H]2CC[C@H](CO)O2)c(=O)n1 [β-L-DDC, 2′,3′-Dideoxy-β-L-cytidine]
Hepatitis B virus
  Inhibition of HBV replication (depression of HBV virion DNA and HBV RI), in words: potent inhibitors of HBV replication
Hepatitis B virus; Table 1
  Selectivity Index IC50/EC90 RI: 274
  Selectivity Index IC50/EC90 Virion: 448
Hepatitis B virus; [4]
  EC50: 0.033 ± 0.003 µM
Hepatitis B virus; [5]
  EC90: 1.1 ± 0.2 µM
Hepatitis B virus; [6]
  EC50: 0.107 ± 0.012 µM
Hepatitis B virus; [7]
  EC90: 1.8 ± 0.2 µM
[2]; [8]
  IC50: 493 ± 64 µM

## Nc1nc(=O)n([C@@H]2CC[C@H](CO)O2)cc1F [β-L-FDDC, 2′,3′-Dideoxy-β-L-5-fluorocytidine]
Hepatitis B virus
  Inhibition of HBV replication (depression of HBV virion DNA and HBV RI), in words: potent inhibitors of HBV replication
Hepatitis B virus; Table 1
  Selectivity Index IC50/EC90 RI: 91
  Selectivity Index IC50/EC90 Virion: 1,460
Hepatitis B virus; [5]
  EC90: 0.3 ± 0.03 µM
Hepatitis B virus; [6]
  EC50: 2.8 ± 0.4 µM
Hepatitis B virus; [7]
  EC90: 4.8 ± 0.6 µM
[2]; [8]
  IC50: 438 ± 57 µM

## Nc1ncnc2c1ncn2[C@@H]1CC[C@H](COP(=O)(O)OP(=O)(O)OP(=O)(O)O)O1 [β-L-ddATP]
[3]
  IC50: 2.1 µM
Human DNA polymerase α
  Ki: > 100 µM
Human DNA polymerase β
  Ki: > 100 µM

## Nc1ncnc2c1ncn2[C@@H]1CC[C@H](CO)O1 [β-L-ddA]
Hepatitis B virus; Table 2
  Selectivity Index IC50/EC50 RI: 50
  Selectivity Index IC50/EC50 Virion: 50
Hepatitis B virus; [9]
  EC50: 5 µM
Hepatitis B virus; [10]
  EC50: 5 µM
[2]; [11]
  IC50: 250 µM
